The record followed here is PubChem BioAssay (NCI).

Common to all, as to test: inhibition of tumour cell growth, NCI panel, 48 h
In experiment [1] the test system is SF-268 CNS.
In experiment [2] the test system is COLO 205 colon.
The test system of experiment [3] is HL-60(TB) leukemia.
Experiment [4] relates to RPMI-8226 leukemia.
The test system of experiment [5] is T-47D breast.
Experiment [6] has as its system K-562 leukemia.
For experiment [7], the system named is ACHN renal.
For experiment [8], the system named is OVCAR-8 ovarian.

Each structure is given as a SMILES string.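 Test compounds were applied to cells in 96-well plates for 48 hours at 5 doses. GI50 is the concentration that inhibits growth by half. Definition used: TGI = concentration required for complete inhibition of growth.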

As for `COc1cccc2c1C(=O)c1c(O)c3c(c(O)c1C2=O)C[C@@](O)(C(=O)CO)C[C@@H]3OC1CC(OC(C)=O)C(OC(C)=O)C(C)O1` (some centres not stated), the GI50 in experiment [1] was 0.287 µM; in experiment [2], 0.801 µM; in experiment [3] it was 0.235 µM; in experiment [4] it was 0.226 µM; in experiment [5], 0.237 µM; in experiment [6], 0.868 µM. For the same compound, the GI50 in experiment [7] was 0.152 µM; in experiment [8] it was 0.479 µM. For the same compound, the TGI in experiment [1] was 4.46 µM; in experiment [2], 4.45 µM; in experiment [4], 2.11 µM; in experiment [5], 1.99 µM; in experiment [7] it was 1.44 µM; in experiment [8], more than 58.1 µM.
Take `c1ccc(CCCNc2nnnc3ccccc23)cc1`: the TGI in experiment [1] is more than 100 µM; in experiment [2], more than 100 µM; in experiment [3] it was more than 100 µM; in experiment [4] it was more than 100 µM; in experiment [5], 83 µM; in experiment [6], more than 100 µM. The TGI in experiment [7] and in experiment [8] was more than 100 µM in each case.
For `Clc1nc(Cl)c2ncn(C/C=C/Cn3cnc4c(Cl)nc(Cl)nc43)c2n1`, the GI50 in experiment [1] is 14.6 µM; in experiment [2], 15.1 µM; in experiment [3], 17.3 µM; in experiment [4], 10.4 µM; in experiment [5], 11.2 µM; in experiment [6] it was 15.5 µM. Also, the GI50 is 18.2 µM in experiment [7] and 6.11 µM in experiment [8]. In addition, the TGI was 30.5 µM in experiment [1]; 35.5 µM in experiment [2]; more than 100 µM in experiment [3]; 25.8 µM in experiment [4]; 32 µM in experiment [5]; 55.8 µM in experiment [6]. The figures for the TGI in experiment [7] and in experiment [8] were 32.2 µM and 21 µM, respectively.
For the compound `FC(F)(F)c1[nH]ncc1-c1nc2c(N3CCCCC3)cc3[nH]ncc3c2c2c1CCCC2`, the GI50 in experiment [1] is 0.786 µM; in experiment [3], 1.23 µM; in experiment [4], 0.534 µM; in experiment [5], 0.756 µM; in experiment [6] it was 1.04 µM; in experiment [7], 0.498 µM. In experiment [8], the GI50 was 0.825 µM. Further, the TGI is 1.97 µM in experiment [1]; 3.32 µM in experiment [3]; 2.44 µM in experiment [4]; more than 13.7 µM in experiment [5]; more than 50 µM in experiment [6]; more than 28 µM in experiment [7]. In experiment [8], this compound gave a TGI of more than 50 µM.
As for `COc1cc(-c2nc3ccccc3[nH]2)ccc1OCC(=O)N=Nc1c(O)[nH]c2ccc(Cl)cc12`, the GI50 in experiment [1] is 1.66 µM; in experiment [2], 1.89 µM; in experiment [3] it was 1.93 µM; in experiment [4] it was 1.12 µM; in experiment [5], 1.66 µM; in experiment [6] it was 0.454 µM. Moreover, the GI50 in experiment [7] is 4.75 µM. Further, the TGI was determined as 3.34 µM in experiment [1]; 3.79 µM in experiment [2]; 4.42 µM in experiment [3]; 3.76 µM in experiment [4]; 3.75 µM in experiment [5]; 3.1 µM in experiment [6]. Moreover, the TGI in experiment [7] was more than 100 µM.
`CCOC(=O)/C(=C/c1ccccc1)C(=O)c1ccccc1`: the GI50 in experiment [1] is 4.37 µM; in experiment [2], 2.43 µM; in experiment [4], 2.25 µM; in experiment [5] it was 6.17 µM; in experiment [7] it was 2.62 µM; in experiment [8] it was 2.4 µM. Besides, the TGI was 21.1 µM in experiment [1]; 5.04 µM in experiment [2]; 5.98 µM in experiment [4]; 32.5 µM in experiment [5]; 6.99 µM in experiment [7]; 6.79 µM in experiment [8].
On to `C=CCC(N[C@@H](CO)c1ccccc1)c1ccccn1` (some centres not stated), for which the GI50 in experiment [2] is more than 100 µM; in experiment [3] it was 24 µM; in experiment [4], 32.7 µM; in experiment [5] it was more than 100 µM; in experiment [6] it was 34 µM; in experiment [7] it was more than 100 µM. Also, in experiment [8], the GI50 is more than 100 µM. Besides, the TGI in experiment [2], in experiment [3], in experiment [4], in experiment [5], in experiment [6] and in experiment [7] was more than 100 µM each time. The TGI in experiment [8] was more than 100 µM.
As for `CCN1CCC2(CC1)NC(=O)c1c(c3ccc(Cl)c(Cl)c3n1C)C2C#N` (configuration not stated), the GI50 is 1.86 µM in experiment [2]; 2.01 µM in experiment [3]; 1.55 µM in experiment [4]; 3.09 µM in experiment [5]; 2.19 µM in experiment [6]; 2.92 µM in experiment [7]. In addition, the TGI came to 4.11 µM in experiment [2]; 6.02 µM in experiment [3]; 4.59 µM in experiment [4]; 13.7 µM in experiment [5]; 6.21 µM in experiment [6]; 12.8 µM in experiment [7].
Consider `COc1ccc2c(c1)CC[C@@H]1[C@@H]2CC[C@]2(C)c3[nH]ncc3C[C@@H]12`, for which the GI50 in experiment [1] is 19.6 µM; in experiment [2], 14.5 µM; in experiment [3], 1.64 µM; in experiment [4] it was 10.2 µM; in experiment [5] it was 10.9 µM; in experiment [7], 19 µM. In experiment [8], the GI50 is 15.6 µM. Further, the TGI in experiment [1] is more than 50 µM; in experiment [2] it was more than 50 µM; in experiment [3], 9.84 µM; in experiment [4] it was 32.8 µM; in experiment [5], 33 µM; in experiment [7], more than 50 µM. The compound also returned a TGI in experiment [8] of more than 50 µM.
On to `COc1ccc(N2CCN(CN3CCN(c4ccc(OC)cc4)C3)C2)cc1`, for which the GI50 was more than 100 µM in experiment [1]; more than 100 µM in experiment [2]; 32.6 µM in experiment [4]; more than 100 µM in experiment [5]; 27.8 µM in experiment [6]; 33.5 µM in experiment [7]. Moreover, the GI50 in experiment [8] is more than 100 µM. Also, the TGI in experiment [1] was more than 100 µM; in experiment [2], more than 100 µM; in experiment [4] it was more than 100 µM; in experiment [5], more than 100 µM; in experiment [6], 52.7 µM; in experiment [7] it was 96.9 µM. Also, the TGI in experiment [8] is more than 100 µM.
